The compounds below were run against T1, human ALK5 (kinase domain, ALK5 T204D) (Homo sapiens, UniProt P36897, T204D) (assay: ALK5 kinase assay ([33P] phosphate incorporation into casein)). Settings: casein substrate, 1 μM unlabelled ATP.
T1 construct: The kinase domain of human ALK5 (amino acids 200-503); made in house; host or cells: insect cells (baculovirus)
T1 sequence (P36897 200-503 T204D): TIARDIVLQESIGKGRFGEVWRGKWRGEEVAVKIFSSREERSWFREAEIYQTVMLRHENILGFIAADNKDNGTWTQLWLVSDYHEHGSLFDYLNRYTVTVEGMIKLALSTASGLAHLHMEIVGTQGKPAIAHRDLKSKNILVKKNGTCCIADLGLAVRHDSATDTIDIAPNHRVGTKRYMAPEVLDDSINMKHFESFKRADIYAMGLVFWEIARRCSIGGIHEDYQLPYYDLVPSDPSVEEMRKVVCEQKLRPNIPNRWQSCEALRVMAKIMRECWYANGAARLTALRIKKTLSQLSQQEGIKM
Format: biochemical
Protocol: The kinase activity of ALK5 is assessed by measuring radiolabelled phosphate [33P] incorporation in to the generic substrate, casein. The kinase domain of human ALK5 (amino acids 200-503) is fused to an N-terminal histidine tag. The kinase activity of ALK5 is rendered constitutive via point mutation at amino acid 204 (threonine to aspartate modification, ALK5 T204D) and the kinase construct is engineered to be expressed from a baculovirus expression construct in insect cells. The purified, recombinantly-expressed histidine-tagged ALK5 T204D protein is dissolved at 5.4 mg/ml in 50 mM Tris-HCl pH 8.0, 150 mM NaCl, 5 mM DTT. ALK5 T204D is dissolved to 2.5 μg/ml in assay buffer (Assay buffer: 20 mM Tris-HCl pH 7.4, 10 mM MgCl2, 2 mM MnCl2) on the day of use.
Test compounds and reference compounds are dissolved in assay buffer without DTT containing 5% (v/v) DMSO. Stock solutions of test and reference compounds are diluted in assay buffer with DTT (1.25 mM) containing 4.5% (v/v) DMSO. 10 μl of test or reference compound are added to the appropriate wells of 96 well U-bottomed plate. Total enzyme activity is determined by measuring ALK5 T204D activity in the absence of ALK5 kinase inhibitor reference compounds. Non-specific binding (NSB) is determined by measuring the activity of ALK5 T204D in the presence of ALK5 kinase inhibitor reference compounds. 10 μl of dephosphorylated casein stock solution (dephosphorylated casein is dissolved in ddH2O at 20 mg/ml) is added per well (200 μg/well final assay concentration). 20 μl of ALK5 T204D (2.5 μg/ml solution) is added per well (50 ng/well final assay concentration). The plates are left to incubate at room temperature for 10 minutes.
10 μl of ATP mix is added to the well to initiate the reaction (0.66 nM [^33P]ATP/1 μM unlabelled ATP/well final assay concentration). The ATP mix is prepared as follows, unlabelled ATP (3 mM) is dissolved in ddH2O and pH adjusted to 7.4. The stock concentration of [^33P]ATP is 10 μCi/μl. The appropriate volume of [^33P]ATP is added to unlabelled ATP solution such that the final assay concentration per well is 0.1 μCi. Following addition of the ATP mix, the plates are incubated at room temperature for 50 minutes. The kinase reaction is terminated by the addition of 50 μL Stop Buffer (20 mM Tris-HCl pH 7.4, 10 mM EDTA).
75 μl/well from the reaction plate is transferred to a Multiscreen-IP plate (MultiScreen-IP plates are prepared by added 50 μL of 70% (v/v) ethanol per well and incubated for 5 minutes at room temperature. The ethanol is removed by aspiration via a MultiScreen HTS Vaccum Manifold unit (Millipore, Cat no: MSVMHT500). The plates are washed twice by adding 200 μl/well ddH2O). The MultiScreen-IP plate is incubated at room temperature for 30 minutes to allowing binding of casein to the plate. The MultiScreen-IP plates are washed three times by adding 200 μl/well 100 mM phosphoric acid solution and the gasket is carefully removed from the back of the MultiScreen-IP plate and the plate dried in the oven for 30 minutes. The MultiScreen-IP plate is backsealed, 50 μL of Microscint™20 is added, then the plates are topsealed and radiolabelled casein detected and quantified on a TopCount™ plate-reader using the ^33P scintillation protocol.

| IC50 | Compound |
| --- | --- |
| < 70 nM | Cc1cccc(-c2cc(-c3cncc4ccccc34)c3cc[nH]c3n2)n1 [Example 56, 4-[6-(6-Methyl-pyridin-2-yl)-1H-pyrrolo[2,3-b]pyridin-4-yl]-isoquinoline] |
| 271 nM | Cc1cccc(-c2cc(-c3cncc(N4CCN(C)CC4)c3)c3cc[nH]c3n2)n1 [Example 57, 4-[5-(4-Methyl-piperazin-1-yl)-pyridin-3-yl]-6-(6-methyl-pyridin-2-yl)-1H-pyrrolo[2,3-b]pyridine] |
| 56 nM | CCOc1cncc(-c2cc(-c3cccc(C)n3)nc3[nH]ccc23)c1 [Example 58, 4-(5-Ethoxy-pyridin-3-yl)-6-(6-methyl-pyridin-2-yl)-1H-pyrrolo[2,3-b]pyridine] |
| 30 nM | Cc1cccc(-c2nc(-c3cncc(-c4cccc(CN)c4)c3)c3cc[nH]c3n2)n1 [Example 59, 3-{5-[2-(6-Methyl-pyridin-2-yl)-7H-pyrrolo[2,3-d]pyrimidin-4-yl]-pyridin-3-yl}-benzylamine] |
| 96 nM | COc1cccc(-c2cncc(-c3cc(-c4cccc(C)n4)nc4[nH]ccc34)c2)c1 [Example 60, 4-[5-(3-Methoxy-phenyl)-pyridin-3-yl]-6-(6-methyl-pyridin-2-yl)-1H-pyrrolo[2,3-b]pyridine] |
| 29 nM | Cc1cccc(-c2nc(-c3cncc(-c4ccc(CN)cc4)c3)c3cc[nH]c3n2)n1 [Example 61, 4-{5-[2-(6-Methyl-pyridin-2-yl)-7H-pyrrolo[2,3-d]pyrimidin-4-yl]-pyridin-3-yl}-benzylamine] |
| 40 nM | Cc1cccc(-c2cc(-c3cncc(NC(=O)CCN(C)C)c3)c3cc[nH]c3n2)n1 [Example 62, 3-Dimethylamino-N-{5-[6-(6-methyl-pyridin-2-yl)-1H-pyrrolo[2,3-b]pyridin-4-yl]-pyridin-3-yl}-propionamide] |
| 12 nM | Cc1cccc(-c2cc(-c3cncc(-c4cccc(CN5CCN(C)CC5)c4)c3)c3cc[nH]c3n2)n1 [Example 63, 4-{5-[3-(4-Methyl-piperazin-1-ylmethyl)-phenyl]-pyridin-3-yl}-6-(6-methyl-pyridin-2-yl)-1H-pyrrolo[2,3-b]pyridine] |
| 250 nM | Cc1cccc(-c2cc(-c3cncc(OC(C)C)c3)c3cc[nH]c3n2)n1 [Example 64, 4-(5-Isopropoxy-pyridin-3-yl)-6-(6-methyl-pyridin-2-yl)-1H-pyrrolo[2,3-b]pyridine] |
| 5 nM | Cc1cccc(-c2cc(-c3cncc(-c4ccc(CN(C)C)cc4)c3)c3cc[nH]c3n2)n1 [Example 65, Dimethyl-(4-{5-[6-(6-methyl-pyridin-2-yl)-1H-pyrrolo[2,3-b]pyridin-4-yl]-pyridin-3-yl}-benzyl)-amine] |
| < 69 nM | Cc1cccc(-c2cc(-c3cncc(-c4cccc(CN(C)C)c4)c3)c3cc[nH]c3n2)n1 [Example 66, Dimethyl-(3-{5-[6-(6-methyl-pyridin-2-yl)-1H-pyrrolo[2,3-b]pyridin-4-yl]-pyridin-3-yl}-benzyl)-amine] |
| 24 nM | Cc1cccc(-c2nc(-c3cncc(-c4cccc(CN5CCOCC5)c4)c3)c3cc[nH]c3n2)n1 [Example 67, 2-(6-Methyl-pyridin-2-yl)-4-[5-(3-morpholin-4-ylmethyl-phenyl)-pyridin-3-yl]-7H-pyrrolo[2,3-d]pyrimidine] |
| < 32 nM | CNCc1cccc(-c2cncc(-c3cc(-c4cccc(C)n4)nc4[nH]ccc34)c2)c1 [Example 68, Methyl-(3-{5-[6-(6-methyl-pyridin-2-yl)-1H-pyrrolo[2,3-b]pyridin-4-yl]-pyridin-3-yl}-benzyl)-amine] |
| < 64 nM | Cc1cccc(-c2nc(-c3cncc(-c4ccc(CN5CCOCC5)cc4)c3)c3cc[nH]c3n2)n1 [Example 69, 2-(6-Methyl-pyridin-2-yl)-4-[5-(4-morpholin-4-ylmethyl-phenyl)-pyridin-3-yl]-7H-pyrrolo[2,3-d]pyrimidine] |
| 13 nM | Cc1cccc(-c2nc(-c3cncc(-c4ccc(CO)cc4)c3)c3cc[nH]c3n2)n1 [Example 70] |
| 198 nM | Cc1cccc(-c2nc(-c3cncc(C4=CCCCC4)c3)c3cc[nH]c3n2)n1 [Example 72, 4-(5-Cyclohex-1-enyl-pyridin-3-yl)-2-(6-methyl-pyridin-2-yl)-7H-pyrrolo[2,3-d]pyrimidine] |
| 17 nM | CNCc1ccc(-c2cncc(-c3cc(-c4cccc(C)n4)nc4[nH]ccc34)c2)cc1 [Example 73, Methyl-(4-{5-[6-(6-methyl-pyridin-2-yl)-1H-pyrrolo[2,3-b]pyridin-4-yl]-pyridin-3-yl}-benzyl)-amine] |
| 163 nM | Cc1cccc(-c2nc(-c3cncc(C4=CCCC4)c3)c3cc[nH]c3n2)n1 [Example 74, 4-(5-Cyclopent-1-enyl-pyridin-3-yl)-2-(6-methyl-pyridin-2-yl)-7H-pyrrolo[2,3-d]pyrimidine] |
| 9 nM | Cc1cccc(-c2nc(-c3cncc(-c4ccc(C(C)(C)N)cc4)c3)c3cc[nH]c3n2)n1 [Example 77, 1-Methyl-1-(4-{5-[2-(6-methyl-pyridin-2-yl)-7H-pyrrolo[2,3-d]pyrimidin-4-yl]-pyridin-3-yl}-phenyl)-ethylamine] |
| 49 nM | Cc1cccc(-c2nc(-c3cncc(-c4cncc(CO)c4)c3)c3cc[nH]c3n2)n1 [Example 78, {5′-[2-(6-Methyl-pyridin-2-yl)-7H-pyrrolo[2,3-d]pyrimidin-4-yl]-[3,3′]bipyridinyl-5-yl}-methanol] |
| 1230 nM | Cc1cccc(-c2nc(-c3cncc(CO)c3)c3cc[nH]c3n2)n1 [Example 79, {5-[2-(6-Methyl-pyridin-2-yl)-7H-pyrrolo[2,3-d]pyrimidin-4-yl]-pyridin-3-yl}-methanol] |
| 239 nM | Cc1cccc(-c2nc(-c3cncc(O)c3)c3cc[nH]c3n2)n1 [Example 80, 5-[2-(6-Methyl-pyridin-2-yl)-7H-pyrrolo[2,3-d]pyrimidin-4-yl]-pyridin-3-ol] |
| 17 nM | Cc1cccc(-c2nc(-c3cncc(-c4ccc(C(C)N)cc4)c3)c3cc[nH]c3n2)n1 (stereo not shown) [Example 81, 1-(4-{5-[2-(6-Methyl-pyridin-2-yl)-7H-pyrrolo[2,3-d]pyrimidin-4-yl]-pyridin-3-yl}-phenyl)-ethylamine] |
| 12 nM | Cc1cccc(-c2cc(-c3cncc(-c4ccc(CO)cc4)c3)c3cc[nH]c3n2)n1 [Example 82, (4-{5-[6-(6-Methyl-pyridin-2-yl)-1H-pyrrolo[2,3-b]pyridin-4-yl]-pyridin-3-yl}-phenyl)-methanol] |
| 557 nM | Cc1cccc(-c2nc(-c3cncc(-c4nnco4)c3)c3cc[nH]c3n2)n1 [Example 83, 2-(6-Methyl-pyridin-2-yl)-4-(5-[1,3,4]oxadiazol-2-yl-pyridin-3-yl)-7H-pyrrolo[2,3-d]pyrimidine] |
| 36 nM | Cc1cccc(-c2cc(-c3cncc(-c4ccc(CN)cc4)c3)c3cc[nH]c3n2)n1 [Example 84, 4-{5-[6-(6-Methyl-pyridin-2-yl)-1H-pyrrolo[2,3-b]pyridin-4-yl]-pyridin-3-yl}-benzylamine] |

| Compound | IC50 |
| --- | --- |
| Cc1cccc(-c2nc(-c3cncc(-c4cncc(CN(C)C)c4)c3)c3cc[nH]c3n2)n1 [Example 75] | 310 nM |
| CNCc1cncc(-c2cncc(-c3nc(-c4cccc(C)n4)nc4[nH]ccc34)c2)c1 [Example 76] | 117 nM |

Source: patent publication US8314112B2 (Novartis AG, priority 2008, dated 2012)
